Test results taken from ChEMBL document CHEMBL2311454, “Discovery and evaluation of novel inhibitors of mycobacterium protein tyrosine phosphatase B from the 6-Hydroxy-benzofuran-5-carboxylic acid scaffold” (J Med Chem, 2013).
The source made the active and inactive calls. No cut-off for these calls is given here.

System: Mycobacterium tuberculosis
Test: Inhibition of Mycobacterium tuberculosis PTPB expressed in mouse RAW264.7 macrophages assessed as restoration of IFNgamma-induced ERK1/2 activation after 1 hr by Western blotting analysis

SMILES: O=C(O)c1cc2c(CCc3ccc(OC(F)(F)F)cc3)c(-c3ccccc3)oc2cc1O
- inhibition: inactive
